Assay results published in the NIST ThermoML archive (doi:10.1021/je1000582).
Numbers after ± are expanded uncertainties.

Assay: activity coefficient (dimensionless); of the first substance listed, at infinite dilution; xn = mol fraction of the nth substance listed
Details: 101 kPa, Liquid, Chromatography, x1 = 0

Row | Compound | activity coefficient (308.15 K) | activity coefficient (318.15 K) | activity coefficient (328.15 K) | activity coefficient (338.15 K) | activity coefficient (348.15 K) | activity coefficient (358.15 K)
1 | CCCOCCC [dipropyl ether] + CCCC[n+]1cccc(C)c1.O=S(=O)([O-])C(F)(F)F | 10.4 ± 0.7 | 10.1 ± 0.7 | 9.86 ± 0.67 | 9.6 ± 0.65 | 9.35 ± 0.64 | 9.14 ± 0.62
2 | C1CCOC1 [tetrahydrofuran] + CCCC[n+]1cccc(C)c1.O=S(=O)([O-])C(F)(F)F | 1.19 ± 0.08 | 1.2 ± 0.08 | 1.21 ± 0.08 | 1.23 ± 0.08 | 1.24 ± 0.08 | 1.25 ± 0.08
3 | CCCCCCCC [octane] + CCCC[n+]1cccc(C)c1.O=S(=O)([O-])C(F)(F)F | 49.6 ± 3.4 | 46.3 ± 3.2 | 43.4 ± 3 | 40.7 ± 2.8 | 38.5 ± 2.6 | 36.2 ± 2.5
4 | C1CCCC1 [cyclopentane] + CCCC[n+]1cccc(C)c1.O=S(=O)([O-])C(F)(F)F | 9.4 ± 0.64 | 8.89 ± 0.61 | 8.51 ± 0.58 | 8.15 ± 0.56 | 7.8 ± 0.53 | 7.54 ± 0.51
5 | c1ccsc1 [thiophene] + CCCC[n+]1cccc(C)c1.O=S(=O)([O-])C(F)(F)F | – | 0.898 ± 0.057 | 0.919 ± 0.058 | 0.937 ± 0.059 | 0.955 ± 0.06 | 0.972 ± 0.061
6 | CCO [ethanol] + CCCC[n+]1cccc(C)c1.O=S(=O)([O-])C(F)(F)F | – | 0.907 ± 0.058 | 0.867 ± 0.055 | 0.827 ± 0.053 | 0.79 ± 0.051 | 0.759 ± 0.05
7 | CCCCO [butan-1-ol] + CCCC[n+]1cccc(C)c1.O=S(=O)([O-])C(F)(F)F | – | 1.42 ± 0.09 | 1.34 ± 0.09 | 1.26 ± 0.08 | 1.2 ± 0.08 | 1.15 ± 0.07
8 | CCOCC [diethyl ether] + CCCC[n+]1cccc(C)c1.O=S(=O)([O-])C(F)(F)F | 4.29 ± 0.29 | 4.24 ± 0.29 | 4.18 ± 0.28 | 4.14 ± 0.28 | 4.1 ± 0.28 | 4.07 ± 0.28
9 | CCCCC [pentane] + CCCC[n+]1cccc(C)c1.O=S(=O)([O-])C(F)(F)F | 18.5 ± 1.3 | 17.3 ± 1.2 | 16.4 ± 1.1 | 15.5 ± 1.1 | 14.8 ± 1 | 14.1 ± 1
10 | CCC(=O)CC [pentan-3-one] + CCCC[n+]1cccc(C)c1.O=S(=O)([O-])C(F)(F)F | – | 1.39 ± 0.09 | 1.42 ± 0.09 | 1.44 ± 0.09 | 1.46 ± 0.1 | 1.48 ± 0.1
11 | CCCC(C)=O [pentan-2-one] + CCCC[n+]1cccc(C)c1.O=S(=O)([O-])C(F)(F)F | – | 1.35 ± 0.09 | 1.36 ± 0.09 | 1.38 ± 0.09 | 1.39 ± 0.09 | 1.41 ± 0.09
12 | C1CCCCCC1 [cycloheptane] + CCCC[n+]1cccc(C)c1.O=S(=O)([O-])C(F)(F)F | 16.4 ± 1.1 | 15.4 ± 1.1 | 14.6 ± 1 | 13.8 ± 0.9 | 13.2 ± 0.9 | 12.5 ± 0.9
13 | O [water] + CCCC[n+]1cccc(C)c1.O=S(=O)([O-])C(F)(F)F | – | 0.89 ± 0.057 | 0.857 ± 0.055 | 0.82 ± 0.053 | 0.789 ± 0.051 | 0.765 ± 0.05
14 | CCCCCCCCC [nonane] + CCCC[n+]1cccc(C)c1.O=S(=O)([O-])C(F)(F)F | 71.7 ± 4.9 | 65.9 ± 4.5 | 61.1 ± 4.2 | 56.8 ± 3.9 | 53.2 ± 3.6 | 49.9 ± 3.4
15 | C=CCCCCC [1-heptene] + CCCC[n+]1cccc(C)c1.O=S(=O)([O-])C(F)(F)F | 17.1 ± 1.2 | 16.4 ± 1.1 | 15.9 ± 1.1 | 15.4 ± 1.1 | 15 ± 1 | 14.5 ± 1
16 | CC(C)=O [acetone] + CCCC[n+]1cccc(C)c1.O=S(=O)([O-])C(F)(F)F | 0.743 ± 0.049 | 0.752 ± 0.049 | 0.762 ± 0.05 | 0.77 ± 0.05 | 0.776 ± 0.051 | 0.783 ± 0.051
17 | C1CCCCCCC1 [cyclooctane] + CCCC[n+]1cccc(C)c1.O=S(=O)([O-])C(F)(F)F | – | 19.8 ± 1.4 | 18.6 ± 1.3 | 17.5 ± 1.2 | 16.5 ± 1.1 | 15.7 ± 1.1
18 | C#CCCCCC [1-heptyne] + CCCC[n+]1cccc(C)c1.O=S(=O)([O-])C(F)(F)F | 4.09 ± 0.28 | 4.18 ± 0.28 | 4.28 ± 0.29 | 4.37 ± 0.3 | 4.46 ± 0.3 | 4.53 ± 0.31
